Results taken from the supplement of paper PMC10307832.

Columns and labels:
Test in all cases: relative viability (nuclei count vs DMSO), 5 days (fraction); higher = more cells survive
AZ505 + Lapatinib = compound: C1CCC(CC1)N(CCNCCC2=C3C(=C(C=C2)O)NC(=O)CO3)C(=O)CCNCCC4=CC(=C(C=C4)Cl)Cl [AZ505] + CS(=O)(=O)CCNCc1ccc(-c2ccc3ncnc(Nc4ccc(OCc5cccc(F)c5)c(Cl)c4)c3c2)o1 [Lapatinib] (partner 2 µM)
Method in brief: (§1)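 The day after seeding in 1536-well plates, lung cancer cell lines were treated by pin tool with a single drug, or with a fixed anchor-drug dose together with five library-drug doses (not always all listed) in √10 steps. After 5 days, a combined fix-and-stain solution (final 0.05% Triton X-100, 1% formaldehyde, 1 ug/ml Hoechst) was added. Nuclei counted on 4× images gave relative viability as treated counts over vehicle counts, reported as the median of duplicate plates.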

AZ505 + Olaparib = compound: C1CCC(CC1)N(CCNCCC2=C3C(=C(C=C2)O)NC(=O)CO3)C(=O)CCNCCC4=CC(=C(C=C4)Cl)Cl [AZ505] + O=C(c1cc(Cc2n[nH]c(=O)c3ccccc23)ccc1F)N1CCN(C(=O)C2CC2)CC1 [Olaparib] (partner 8 µM)
Method in brief: as §1

Dactolisib + Tozasertib = compound: Cn1c(=O)n(-c2ccc(C(C)(C)C#N)cc2)c2c3cc(-c4cnc5ccccc5c4)ccc3ncc21 [Dactolisib] + Cc1cc(Nc2cc(N3CCN(C)CC3)nc(Sc3ccc(NC(=O)C4CC4)cc3)n2)n[nH]1 [Tozasertib] (partner 0.1 µM)
Method in brief: as §1

Dactolisib + Decitabine = compound: Cn1c(=O)n(-c2ccc(C(C)(C)C#N)cc2)c2c3cc(-c4cnc5ccccc5c4)ccc3ncc21 [Dactolisib] + Nc1ncn([C@H]2C[C@H](O)[C@@H](CO)O2)c(=O)n1 [Decitabine] (partner 2 µM)
Method in brief: as §1

Cell Line	relative viability (AZ505 + Lapatinib; first compound 0.08 µM)	relative viability (AZ505 + Lapatinib; first compound 0.253 µM)	relative viability (AZ505 + Lapatinib; first compound 0.8 µM)	relative viability (AZ505 + Lapatinib; first compound 2.53 µM)	relative viability (AZ505 + Lapatinib; first compound 8 µM)	relative viability (AZ505 + Olaparib; first compound 0.08 µM)	relative viability (AZ505 + Olaparib; first compound 0.253 µM)	relative viability (AZ505 + Olaparib; first compound 0.8 µM)	relative viability (AZ505 + Olaparib; first compound 2.53 µM)	relative viability (AZ505 + Olaparib; first compound 8 µM)	relative viability (Dactolisib + Tozasertib; first compound 0.002 µM)	relative viability (Dactolisib + Tozasertib; first compound 0.006325 µM)	relative viability (Dactolisib + Tozasertib; first compound 0.02 µM)	relative viability (Dactolisib + Tozasertib; first compound 0.06325 µM)	relative viability (Dactolisib + Tozasertib; first compound 0.2 µM)	relative viability (Dactolisib + Decitabine; first compound 0.002 µM)	relative viability (Dactolisib + Decitabine; first compound 0.006325 µM)	relative viability (Dactolisib + Decitabine; first compound 0.02 µM)	relative viability (Dactolisib + Decitabine; first compound 0.06325 µM)	relative viability (Dactolisib + Decitabine; first compound 0.2 µM)
HCC-827	0.218	0.191	0.171	0.199	0.191	0.629	0.662	0.628	0.646	0.711	0.419	0.452	0.401	0.416	0.329	0.387	0.343	0.337	0.27	0.294
HOP-62	0.878	1.22	1.08	1.03	0.942		0.374	0.386	0.387	0.45	0.423	0.383	0.473	0.306	0.309	0.287	0.238	0.215	0.275	0.22
LC-2-ad	0.949	0.957	0.92	1	0.921	0.683	0.696	0.648	0.713	0.741	0.454	0.412	0.43	0.363	0.333	0.888	0.871	0.727	0.784	0.73
LCLC-97TM1	1.03	0.948	1.28	1.06	1.3	0.326	0.471	0.369		0.595	0.189	0.15	0.151	0.171	0.111	0.261	0.24	0.23	0.172	0.155
LK-2	0.777	0.837	1	1.05	1.03	0.597	0.583	0.87	0.822	0.784	0.209	0.197	0.181	0.153	0.171	0.347	0.305	0.335	0.159	0.142
LOU-NH91	0.753	0.724	0.761	0.84	0.779	0.87	0.897	0.886	0.903	0.894	0.645	0.655	0.683	0.616	0.449	0.772	0.791	0.795	0.623	0.565
LU99A	0.915	0.965	0.931	1.04	1.01	0.279	0.298	0.289		0.265	0.265	0.257	0.283	0.224	0.185	0.906	0.723	0.602	0.373	0.261
LXF-289	0.876		0.869	0.857	0.869	0.988	1.11	1.01	1.05	1.01	0.236	0.189	0.226	0.182	0.136	0.455	0.4	0.388	0.357	0.399
NCI-H23	1.02		0.984	1.23	1.15	0.256	0.362	0.305	0.364	0.337	0.346	0.399	0.318	0.208	0.178	0.295	0.296	0.316	0.263	0.234
NCI-H322M	0.535	0.539	0.611	0.475	0.576	0.576		0.707	0.768	0.844	0.386	0.46	0.414	0.412	0.37	0.759	0.712	0.631	0.661	0.608
NCI-H358	0.408	0.474	0.416	0.371	0.435	0.569	0.761	0.584	0.604	0.59	0.114	0.0941	0.0945	0.0839	0.0896	0.303	0.204	0.202	0.141	0.127
NCI-H460	0.874	1.1	0.877	0.922	1.07	0.365	0.477	0.388	0.46	0.477	0.38	0.396	0.387	0.257	0.139	0.612	0.461	0.504	0.252	0.134
NCI-H520	0.799	0.828	0.761	0.895	0.983	0.288	0.279	0.367	0.302	0.349	0.425	0.468	0.365	0.196	0.218	0.527	0.476	0.456	0.206	0.156
NCI-H596	0.977	0.94	0.885	0.876	1.05	0.743		0.704	0.722	0.598	0.942	0.751	0.632	0.35	0.32	1	0.965	0.814	0.718	0.523
NCI-H647	1.03	1.11	1.01	1.03	1.17	0.521	0.739	0.547	0.533	0.706	0.265	0.235	0.19	0.099	0.112	0.487	0.292	0.188	0.116	0.14
NCI-H650	0.849	0.925	1.18	1.06	1.06	0.386	0.462	0.425	0.497	0.356	0.713	0.651	0.711	0.608	0.408	0.488	0.27	0.364	0.282	0.302

Cell Line	relative viability (AZ505 + Lapatinib; first compound 0.08 µM)	relative viability (AZ505 + Lapatinib; first compound 0.253 µM)	relative viability (AZ505 + Lapatinib; first compound 0.8 µM)	relative viability (AZ505 + Lapatinib; first compound 2.53 µM)	relative viability (AZ505 + Lapatinib; first compound 8 µM)	relative viability (AZ505 + Olaparib; first compound 0.08 µM)	relative viability (AZ505 + Olaparib; first compound 0.253 µM)	relative viability (AZ505 + Olaparib; first compound 0.8 µM)	relative viability (AZ505 + Olaparib; first compound 2.53 µM)	relative viability (AZ505 + Olaparib; first compound 8 µM)	relative viability (Dactolisib + Tozasertib; first compound 0.002 µM)	relative viability (Dactolisib + Tozasertib; first compound 0.006325 µM)	relative viability (Dactolisib + Tozasertib; first compound 0.02 µM)	relative viability (Dactolisib + Tozasertib; first compound 0.06325 µM)	relative viability (Dactolisib + Tozasertib; first compound 0.2 µM)	relative viability (Dactolisib + Decitabine; first compound 0.002 µM)	relative viability (Dactolisib + Decitabine; first compound 0.006325 µM)	relative viability (Dactolisib + Decitabine; first compound 0.02 µM)	relative viability (Dactolisib + Decitabine; first compound 0.06325 µM)	relative viability (Dactolisib + Decitabine; first compound 0.2 µM)
NCI-H661	0.468	0.502	0.447	0.477	0.499	0.732	0.751	0.728	0.709	0.727	0.345	0.366	0.345	0.381	0.353	0.574	0.532	0.501	0.346	0.324
NCI-H727	0.702	0.765	0.743	0.66	0.781	0.653	0.675	0.667	0.724	0.662	0.585	0.587	0.561	0.451	0.407		0.986	1.01	0.465	0.496
NCI-H838	0.941	0.8	0.893	0.894	0.903	0.688	0.765	0.744	0.787	0.776	0.249	0.295	0.254	0.208	0.199	0.603	0.446	0.4	0.289	0.286
NCI-H1355	0.865	0.944	0.95	0.855	0.995	0.719	0.796	0.729	0.734	0.711	0.625	0.537	0.447	0.456	0.177	0.382	0.35	0.338	0.267	0.253
NCI-H1395	0.949	0.952	0.911	1.08	0.992	0.427		0.456	0.489	0.392	0.657	0.709	0.676	0.593	0.53	0.601	0.69	0.667	0.505	0.447
NCI-H1437	0.765	0.729	0.757	0.738	0.831	0.623	0.623	0.632	0.595	0.637	0.467	0.425	0.415	0.518	0.382	0.716	0.551	0.676	0.569	0.482
NCI-H1650	0.699	0.707	0.794	0.742	0.909	0.723	0.803	0.735	0.727	0.853	0.397	0.476	0.425	0.367	0.302	0.591	0.367	0.37	0.294	0.315
NCI-H1651	0.781	0.709	0.833	0.784	0.796	0.182	0.19	0.179	0.185	0.186	0.693	0.677	0.564	0.475	0.286	0.644	0.689	0.503	0.327	0.314
NCI-H1666	0.532	0.544	0.531	0.614	0.518	0.736	0.812	0.721	0.731	0.764	0.742	0.614	0.667	0.526	0.614	0.836	0.714	0.756	0.607	0.596
NCI-H1734	0.991	1	1.02	1.01	1	0.603	0.673	0.613	0.63	0.641	0.212	0.259	0.279	0.23	0.198	0.542	0.491	0.478	0.341	0.259
NCI-H1755	1.02	0.99	1.09	1.09	1.03	0.82	0.849	0.92	0.885	0.868	0.613	0.555	0.577	0.542	0.419	0.87	0.768	0.766	0.673	0.536
NCI-H1793	0.541	0.524	1.04	0.75	0.889	0.696	0.885	0.769	0.772	0.972	0.329	0.242	0.199	0.126	0.106	0.454	0.319	0.266	0.231	0.172
NCI-H1915	1.01	1.07	0.985	1.05	1.04	0.259	0.272	0.247	0.272	0.257	0.419	0.506	0.459	0.404	0.296	0.291	0.259	0.266	0.285	0.251
NCI-H1944	0.811	0.8	0.9	0.76	0.759	0.39	0.411	0.497	0.413	0.423	0.308	0.237	0.237	0.156	0.153	0.502	0.416	0.45	0.272	0.262
NCI-H1975	0.773	0.82	0.858	0.9	0.885	0.747	0.883	0.75	0.775	0.904	0.753	0.724	0.578	0.267	0.138	0.387	0.349	0.394	0.286	0.25
NCI-H1993	0.838	0.764	0.871	0.782	0.941	0.995	1.12	1.14	1.01	1.16	0.584	0.581	0.504	0.495	0.502	0.722	0.503	0.511	0.389	0.46
